Measured values as given in patent US20060069132A1, “Azolecarboxamide herbicides” (priority 2004, published 2006).

Assays:
velvetleaf [1] = assay: Test A pre-/postemergence herbicide test; format: in vivo, Abutilon theophrasti
Method in brief: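 Seeds sown in sandy loam received a preemergence directed soil spray of compound in non-phytotoxic solvent with surfactant; postemergence plants (2–10 cm, one- to two-leaf stage) were sprayed to runoff at the same time. After ~10 days in greenhouse, injury was rated visually versus untreated controls (0 = no effect, 100 = complete control).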

corn = assay: Test B pre-/postemergence herbicide test; format: in vivo, Zea mays
Method in brief: (§1)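 Flooded paddy rice and barnyardgrass were treated at the 2-leaf stage; upland plantings received compound either on sown seed or on 1- to 4-leaf seedlings. All were kept 13–15 days in a greenhouse and scored visually, 0–100, relative to untreated plants.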

large crabgrass = assay: Test B pre-/postemergence herbicide test; format: in vivo, Digitaria sanguinalis
Method in brief: as §1

Surinam grass = assay: Test C pre-/postemergence herbicide test; format: in vivo, Urochloa decumbens; settings: preemergence
Method in brief: (§2)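 Seeds were planted and sprayed preemergence with test chemicals in a non-phytotoxic solvent mixture containing surfactant; postemergence treatments went onto plants 2 to 18 cm tall (1- to 4-leaf stage). After 12 to 14 days in a greenhouse, injury was rated visually against untreated controls on a 0–100 scale.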

cocklebur = assay: Test C pre-/postemergence herbicide test; format: in vivo, Xanthium strumarium; settings: preemergence
Method in brief: as §2

eastern black nightshade = assay: Test C pre-/postemergence herbicide test; format: in vivo, Solanum ptycanthum; settings: preemergence
Method in brief: as §2

pigweed = assay: Test C pre-/postemergence herbicide test; format: in vivo, Amaranthus retroflexus; settings: preemergence
Method in brief: as §2

soybean = assay: Test C pre-/postemergence herbicide test; format: in vivo, Glycine max; settings: preemergence
Method in brief: as §2

velvetleaf [2] = assay: Test C pre-/postemergence herbicide test; format: in vivo, Abutilon theophrasti; settings: preemergence
Method in brief: as §2

[3] = Postemergence, 500 g ai/ha, 0 to 100 scale, 0 no effect, 100 complete control
[4] = Postemergence, 2000 g ai/ha, 0 to 100 scale, 0 no effect, 100 complete control
[5] = 125 g ai/ha, 0 is no effect, 100 is complete control, preemergence
[6] = Postemergence, 500 g ai/ha, scale 0 (no effect) to 100 (complete control)
[7] = postemergence, 125 g ai/ha, scale 0 to 100
[8] = 500 g ai/ha, scale 0 to 100 (0 no effect, 100 complete control), visual, 12 to 14 days
[9] = Preemergence, 500 g ai/ha, scale 0 to 100
[10] = 125 g ai/ha, scale 0 (no effect) to 100 (complete control), visual, 12 to 14 days
[11] = 250 g ai/ha, scale 0 to 100 (0 no effect, 100 complete control), visual, 12 to 14 days

CCc1nn(C(C)(C)C)nc1C(=O)Nc1cccc(C(=O)NC2CC2)c1 [Compound 417]
Velvetleaf plant response rating (velvetleaf [1]; [3]): 60
Plant response rating, Velvetleaf (velvetleaf [1]; [4]): 90
Velvetleaf plant response rating (velvetleaf [1]; Preemergence, 2000 g ai/ha, visual rating, 0 to 100 scale (0 no effect, 100 complete control)): 70
Velvetleaf plant response rating (velvetleaf [1]; preemergence, 500 g ai/ha, visual injury, 0 to 100 scale (0 no effect, 100 complete control)): 55
Plant response rating (0 to 100 scale), Corn (corn; [5]): 40
Corn plant response rating (corn; [6]): 30
Corn plant response rating (corn; [7]): 10
Plant response rating (0 to 100 scale), Crabgrass, Large (large crabgrass; [5]): 100
Crabgrass, Large plant response rating (large crabgrass; [6]): 40
Crabgrass, Large plant response rating (large crabgrass; [7]): 20
Plant response rating, Surinam Grass (Surinam grass; 62 g ai/ha, scale 0 to 100): 0
Plant response rating (0 = no effect, 100 = complete control), Surinam Grass (Surinam grass; 125 g ai/ha): 75
Plant response rating, Surinam Grass (Surinam grass; [8]): 95
Plant response rating, Cocklebur (cocklebur; 62 g ai/ha, scale 0 to 100): 0
Plant response rating (0 = no effect, 100 = complete control), Cocklebur (cocklebur; 125 g ai/ha): 0
Plant response rating, Cocklebur (cocklebur; 250 g ai/ha, scale 0-100): 0
Plant response rating, Cocklebur (cocklebur; [8]): 0
Plant response rating, Nightshade (eastern black nightshade; 62 g ai/ha, scale 0 to 100): 55
Plant response rating (0 = no effect, 100 = complete control), Nightshade (eastern black nightshade; 125 g ai/ha): 60
Plant response rating, Nightshade (eastern black nightshade; [8]): 95
Plant response rating, Pigweed (pigweed; 62 g ai/ha, scale 0 to 100): 100
Plant response rating (0 = no effect, 100 = complete control), Pigweed (pigweed; 125 g ai/ha): 100
Plant response rating, Pigweed (pigweed; [8]): 100
Plant response rating, Soybean (soybean; 62 g ai/ha, scale 0 to 100): 0
Plant response rating (0 = no effect, 100 = complete control), Soybean (soybean; 125 g ai/ha): 0
Plant response rating, Soybean (soybean; [8]): 40
Plant response rating, Velvetleaf (velvetleaf [2]; 62 g ai/ha, scale 0 to 100): 75
Plant response rating (0 = no effect, 100 = complete control), Velvetleaf (velvetleaf [2]; 125 g ai/ha): 100
Plant response rating, Velvetleaf (velvetleaf [2]; [8]): 100

CCCCn1nc(C(C)(C)C)cc1C(=O)Nc1cccc(C(=O)NCC)c1 [Compound 41]
Plant response rating, Velvetleaf (velvetleaf [1]; [3]): 25
Plant response rating, Velvetleaf (velvetleaf [1]; [4]): 25
Velvetleaf plant response rating (velvetleaf [1]; Preemergence, 500 g ai/ha, visual rating, 0 to 100 scale (0 no effect, 100 complete control)): 25
Velvetleaf plant response rating (velvetleaf [1]; Preemergence, 2000 g ai/ha, 0 to 100 scale, 0 no effect, 100 complete control): 40
Corn plant response rating (corn; [9]): 0
Crabgrass, Large plant response rating (large crabgrass; Postemergence, 125 g ai/ha, scale 0 (no effect) to 100 (complete control)): 20
Plant response rating, Crabgrass, Large (large crabgrass; Postemergence, 500 g ai/ha, visual rating after 13 to 15 days, scale 0 (no effect) to 100 (complete control)): 30
Crabgrass, Large plant response rating (large crabgrass; [9]): 100
Plant response rating, Surinam Grass (Surinam grass; 31 g ai/ha, scale 0 to 100): 10
Plant response rating (0 = no effect, 100 = complete control), Surinam Grass (Surinam grass; 62 g ai/ha): 20
Plant response rating, Surinam Grass (Surinam grass; [10]): 20
Plant response rating, Surinam Grass (Surinam grass; [11]): 20
Plant response rating, Cocklebur (cocklebur; 31 g ai/ha, scale 0 to 100): 0
Plant response rating (0 = no effect, 100 = complete control), Cocklebur (cocklebur; 62 g ai/ha): 0
Plant response rating, Cocklebur (cocklebur; [10]): 0
Plant response rating, Cocklebur (cocklebur; [11]): 10
Plant response rating, Nightshade (eastern black nightshade; 31 g ai/ha, scale 0 to 100): 0
Plant response rating (0 = no effect, 100 = complete control), Nightshade (eastern black nightshade; 62 g ai/ha): 0
Plant response rating, Nightshade (eastern black nightshade; [10]): 10
Plant response rating, Nightshade (eastern black nightshade; [11]): 90
Plant response rating, Pigweed (pigweed; 31 g ai/ha, scale 0 to 100): 0
Plant response rating (0 = no effect, 100 = complete control), Pigweed (pigweed; 62 g ai/ha): 0
Plant response rating, Pigweed (pigweed; [10]): 90
Plant response rating, Pigweed (pigweed; [11]): 100
Plant response rating, Soybean (soybean; 31 g ai/ha, scale 0 to 100): 0
Plant response rating (0 = no effect, 100 = complete control), Soybean (soybean; 62 g ai/ha): 0
Plant response rating, Soybean (soybean; [10]): 0
Plant response rating, Soybean (soybean; [11]): 10
Plant response rating, Velvetleaf (velvetleaf [2]; 31 g ai/ha, scale 0 to 100): 0
Plant response rating (0 = no effect, 100 = complete control), Velvetleaf (velvetleaf [2]; 62 g ai/ha): 40
Plant response rating, Velvetleaf (velvetleaf [2]; [10]): 40
Plant response rating, Velvetleaf (velvetleaf [2]; [11]): 100
